Test results taken from PubChem BioAssay (NCI).
Values after ≈ are worked out from the molar mass of the structure shown.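 In this assay, cells in 96-well plates receive the compound at five concentrations for 48 hours. Endpoints are linearly interpolated between the surrounding concentrations. GI50 = concentration required for 50% inhibition of growth. TGI: concentration producing complete growth inhibition.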

Tests used:
Test in all cases: DTP human tumour cell line panel, 48 h
786-0 renal = system: 786-0 renal
A498 renal = system: A498 renal
A549 NSCLC = system: A549 NSCLC
ACHN renal = system: ACHN renal
BT-549 breast = system: BT-549 breast
CAKI-1 renal = system: CAKI-1 renal
CCRF-CEM leukemia = system: CCRF-CEM leukemia
COLO 205 colon = system: COLO 205 colon
DU-145 prostate = system: DU-145 prostate
EKVX NSCLC = system: EKVX NSCLC
HCC-2998 colon = system: HCC-2998 colon
HCT-116 colon = system: HCT-116 colon
HCT-15 colon = system: HCT-15 colon
HL-60(TB) leukemia = system: HL-60(TB) leukemia
HOP-62 NSCLC = system: HOP-62 NSCLC
HOP-92 NSCLC = system: HOP-92 NSCLC
HS 578T breast = system: HS 578T breast
HT29 colon = system: HT29 colon
IGROV1 ovarian = system: IGROV1 ovarian
K-562 leukemia = system: K-562 leukemia
KM12 colon = system: KM12 colon
LOX IMVI melanoma = system: LOX IMVI melanoma
M14 melanoma = system: M14 melanoma
MALME-3M melanoma = system: MALME-3M melanoma
MCF7 breast = system: MCF7 breast
MDA-MB-231 breast = system: MDA-MB-231 breast
MDA-MB-435 = system: MDA-MB-435
MDA-N = system: MDA-N
MOLT-4 leukemia = system: MOLT-4 leukemia
NCI-H226 lung = system: NCI-H226 lung
NCI-H23 lung = system: NCI-H23 lung
NCI-H460 lung = system: NCI-H460 lung
NCI-H522 lung = system: NCI-H522 lung
NCI/ADR-RES ovarian = system: NCI/ADR-RES ovarian
OVCAR-3 ovarian = system: OVCAR-3 ovarian
OVCAR-4 ovarian = system: OVCAR-4 ovarian
OVCAR-5 ovarian = system: OVCAR-5 ovarian
OVCAR-8 ovarian = system: OVCAR-8 ovarian
PC-3 prostate = system: PC-3 prostate
RPMI-8226 leukemia = system: RPMI-8226 leukemia
RXF 393 renal = system: RXF 393 renal
SF-268 CNS = system: SF-268 CNS
SF-295 CNS = system: SF-295 CNS
SF-539 CNS = system: SF-539 CNS
SK-MEL-2 melanoma = system: SK-MEL-2 melanoma
SK-MEL-28 melanoma = system: SK-MEL-28 melanoma
SK-MEL-5 melanoma = system: SK-MEL-5 melanoma
SK-OV-3 ovarian = system: SK-OV-3 ovarian
SN12C renal = system: SN12C renal
SNB-19 CNS = system: SNB-19 CNS
SNB-75 CNS = system: SNB-75 CNS
SR leukemia = system: SR leukemia
SW-620 colon = system: SW-620 colon
T-47D breast = system: T-47D breast
TK-10 renal = system: TK-10 renal
U251 CNS = system: U251 CNS
UACC-257 melanoma = system: UACC-257 melanoma
UACC-62 melanoma = system: UACC-62 melanoma
UO-31 renal = system: UO-31 renal

CCOC(=O)CC1(O)C=CC(=O)C=C1
GI50 (786-0 renal): 0.596 mg/L (≈ 3.04 µM) | TGI (786-0 renal): 2 mg/L (≈ 10.2 µM) | GI50 (A498 renal): 3.09 mg/L (≈ 15.7 µM) | TGI (A498 renal): 5.26 mg/L (≈ 26.8 µM) | GI50 (A549 NSCLC): 4.95 mg/L (≈ 25.2 µM) | TGI (A549 NSCLC): 16.4 mg/L (≈ 83.4 µM) | GI50 (ACHN renal): 2.43 mg/L (≈ 12.4 µM) | TGI (ACHN renal): 4.6 mg/L (≈ 23.4 µM) | GI50 (BT-549 breast): 1.48 mg/L (≈ 7.55 µM) | TGI (BT-549 breast): 3.67 mg/L (≈ 18.7 µM) | GI50 (CAKI-1 renal): 2.62 mg/L (≈ 13.3 µM) | TGI (CAKI-1 renal): 4.71 mg/L (≈ 24 µM) | GI50 (CCRF-CEM leukemia): 0.757 mg/L (≈ 3.86 µM) | TGI (CCRF-CEM leukemia): 7.02 mg/L (≈ 35.8 µM) | GI50 (COLO 205 colon): 2.59 mg/L (≈ 13.2 µM) | TGI (COLO 205 colon): 6.19 mg/L (≈ 31.6 µM) | GI50 (DU-145 prostate): 2.54 mg/L (≈ 12.9 µM) | TGI (DU-145 prostate): 7.75 mg/L (≈ 39.5 µM) | GI50 (EKVX NSCLC): 3.24 mg/L (≈ 16.5 µM) | TGI (EKVX NSCLC): 6.16 mg/L (≈ 31.4 µM) | GI50 (HCC-2998 colon): 2.56 mg/L (≈ 13 µM) | TGI (HCC-2998 colon): 4.68 mg/L (≈ 23.9 µM) | GI50 (HCT-116 colon): 2.47 mg/L (≈ 12.6 µM) | TGI (HCT-116 colon): 5.44 mg/L (≈ 27.7 µM) | GI50 (HCT-15 colon): 0.313 mg/L (≈ 1.59 µM) | TGI (HCT-15 colon): 0.596 mg/L (≈ 3.04 µM) | GI50 (HL-60(TB) leukemia): 1 mg/L (≈ 5.1 µM) | TGI (HL-60(TB) leukemia): 24.3 mg/L (≈ 124 µM) | GI50 (HOP-62 NSCLC): 2.82 mg/L (≈ 14.4 µM) | TGI (HOP-62 NSCLC): 5.29 mg/L (≈ 26.9 µM) | GI50 (HOP-92 NSCLC): 3.22 mg/L (≈ 16.4 µM) | TGI (HOP-92 NSCLC): 5.44 mg/L (≈ 27.7 µM) | GI50 (HS 578T breast): 2.13 mg/L (≈ 10.8 µM) | TGI (HS 578T breast): 15.3 mg/L (≈ 78.1 µM) | GI50 (HT29 colon): 2.17 mg/L (≈ 11.1 µM) | TGI (HT29 colon): 4.46 mg/L (≈ 22.7 µM) | GI50 (IGROV1 ovarian): 0.885 mg/L (≈ 4.51 µM) | TGI (IGROV1 ovarian): 2.19 mg/L (≈ 11.2 µM) | GI50 (K-562 leukemia): 1.37 mg/L (≈ 6.97 µM) | TGI (K-562 leukemia): 10.8 mg/L (≈ 54.9 µM) | GI50 (KM12 colon): 0.33 mg/L (≈ 1.68 µM) | TGI (KM12 colon): 0.738 mg/L (≈ 3.76 µM) | GI50 (LOX IMVI melanoma): 0.498 mg/L (≈ 2.54 µM) | TGI (LOX IMVI melanoma): 1.68 mg/L (≈ 8.57 µM) | GI50 (M14 melanoma): 1.67 mg/L (≈ 8.49 µM) | TGI (M14 melanoma): 4.35 mg/L (≈ 22.1 µM) | GI50 (MALME-3M melanoma): 0.914 mg/L (≈ 4.66 µM) | TGI (MALME-3M melanoma): 2.89 mg/L (≈ 14.7 µM) | GI50 (MCF7 breast): 0.824 mg/L (≈ 4.2 µM) | TGI (MCF7 breast): 2.59 mg/L (≈ 13.2 µM) | GI50 (MDA-MB-231 breast): 0.443 mg/L (≈ 2.26 µM) | TGI (MDA-MB-231 breast): 1.31 mg/L (≈ 6.66 µM) | GI50 (MDA-MB-435): 2.35 mg/L (≈ 12 µM) | TGI (MDA-MB-435): 4.89 mg/L (≈ 24.9 µM) | GI50 (MDA-N): 2.83 mg/L (≈ 14.4 µM) | TGI (MDA-N): 7.25 mg/L (≈ 37 µM) | GI50 (MOLT-4 leukemia): 0.4 mg/L (≈ 2.04 µM) | TGI (MOLT-4 leukemia): 1.61 mg/L (≈ 8.22 µM) | GI50 (NCI-H226 lung): 4.79 mg/L (≈ 24.4 µM) | TGI (NCI-H226 lung): 13 mg/L (≈ 66 µM) | GI50 (NCI-H23 lung): 0.541 mg/L (≈ 2.76 µM) | TGI (NCI-H23 lung): 1.75 mg/L (≈ 8.91 µM) | GI50 (NCI-H460 lung): 1.12 mg/L (≈ 5.71 µM) | TGI (NCI-H460 lung): 3.21 mg/L (≈ 16.3 µM) | GI50 (NCI-H522 lung): 0.515 mg/L (≈ 2.62 µM) | TGI (NCI-H522 lung): 1.31 mg/L (≈ 6.68 µM) | GI50 (NCI/ADR-RES ovarian): 1.28 mg/L (≈ 6.5 µM) | TGI (NCI/ADR-RES ovarian): 6.57 mg/L (≈ 33.5 µM) | GI50 (OVCAR-3 ovarian): 0.738 mg/L (≈ 3.76 µM) | TGI (OVCAR-3 ovarian): 2.16 mg/L (≈ 11 µM) | GI50 (OVCAR-4 ovarian): 2.21 mg/L (≈ 11.3 µM) | TGI (OVCAR-4 ovarian): 4.44 mg/L (≈ 22.6 µM) | GI50 (OVCAR-5 ovarian): 3.18 mg/L (≈ 16.2 µM) | TGI (OVCAR-5 ovarian): 5.42 mg/L (≈ 27.6 µM) | GI50 (OVCAR-8 ovarian): 0.425 mg/L (≈ 2.16 µM) | TGI (OVCAR-8 ovarian): 1.13 mg/L (≈ 5.76 µM) | GI50 (PC-3 prostate): 0.348 mg/L (≈ 1.78 µM) | TGI (PC-3 prostate): 0.921 mg/L (≈ 4.69 µM) | GI50 (RPMI-8226 leukemia): 1.24 mg/L (≈ 6.33 µM) | TGI (RPMI-8226 leukemia): 28.4 mg/L (≈ 145 µM) | GI50 (RXF 393 renal): 0.666 mg/L (≈ 3.39 µM) | TGI (RXF 393 renal): 1.75 mg/L (≈ 8.93 µM) | GI50 (SF-268 CNS): 0.57 mg/L (≈ 2.9 µM) | TGI (SF-268 CNS): 1.92 mg/L (≈ 9.78 µM) | GI50 (SF-295 CNS): 2.55 mg/L (≈ 13 µM) | TGI (SF-295 CNS): 5.07 mg/L (≈ 25.8 µM) | GI50 (SF-539 CNS): 0.581 mg/L (≈ 2.96 µM) | TGI (SF-539 CNS): 2.68 mg/L (≈ 13.6 µM) | GI50 (SK-MEL-2 melanoma): 2.33 mg/L (≈ 11.9 µM) | TGI (SK-MEL-2 melanoma): 4.66 mg/L (≈ 23.7 µM) | GI50 (SK-MEL-28 melanoma): 1.04 mg/L (≈ 5.3 µM) | TGI (SK-MEL-28 melanoma): 2.89 mg/L (≈ 14.7 µM) | GI50 (SK-MEL-5 melanoma): 1.96 mg/L (≈ 9.98 µM) | TGI (SK-MEL-5 melanoma): 3.86 mg/L (≈ 19.7 µM) | GI50 (SK-OV-3 ovarian): 1.71 mg/L (≈ 8.73 µM) | TGI (SK-OV-3 ovarian): 5.53 mg/L (≈ 28.2 µM) | GI50 (SN12C renal): 2.46 mg/L (≈ 12.5 µM) | TGI (SN12C renal): 4.6 mg/L (≈ 23.5 µM) | GI50 (SNB-19 CNS): 1.53 mg/L (≈ 7.78 µM) | TGI (SNB-19 CNS): 5.05 mg/L (≈ 25.7 µM) | GI50 (SNB-75 CNS): 1.95 mg/L (≈ 9.94 µM) | TGI (SNB-75 CNS): 4.38 mg/L (≈ 22.3 µM) | GI50 (SR leukemia): 0.348 mg/L (≈ 1.77 µM) | TGI (SR leukemia): 1.18 mg/L (≈ 6.03 µM) | GI50 (SW-620 colon): 1.68 mg/L (≈ 8.57 µM) | TGI (SW-620 colon): 4.39 mg/L (≈ 22.4 µM) | GI50 (T-47D breast): 0.667 mg/L (≈ 3.4 µM) | TGI (T-47D breast): 2.31 mg/L (≈ 11.8 µM) | GI50 (TK-10 renal): 2.12 mg/L (≈ 10.8 µM) | TGI (TK-10 renal): 6.04 mg/L (≈ 30.8 µM) | GI50 (U251 CNS): 0.477 mg/L (≈ 2.43 µM) | TGI (U251 CNS): 1.45 mg/L (≈ 7.38 µM) | GI50 (UACC-257 melanoma): 0.883 mg/L (≈ 4.5 µM) | TGI (UACC-257 melanoma): 2.09 mg/L (≈ 10.7 µM) | GI50 (UACC-62 melanoma): 0.485 mg/L (≈ 2.47 µM) | TGI (UACC-62 melanoma): 1.7 mg/L (≈ 8.69 µM) | GI50 (UO-31 renal): 2.41 mg/L (≈ 12.3 µM) | TGI (UO-31 renal): 4.44 mg/L (≈ 22.6 µM)
